The text below walks through data of PMC6048161, “Inward-facing conformation of L-ascorbate transporter suggests an elevator mechanism” (Cell Discovery, 2018).

In assay [1] the target is T1, ecUlaA (Escherichia coli, UniProt P39301, T86P).
T1 construct: gene ulaA; homologue genes cloned in pET21b with C-terminal His8, E. coli C43(DE3)
Briefly: isothermal titration calorimetry. The assay is classed as binding. For orientation: In ITC the heat of successive injections is recorded.

Assay [2] has as its target T2, ecUlaA (Escherichia coli, UniProt P39301).
T2 construct: gene ulaA; homologue genes cloned in pET21b with C-terminal His8, E. coli C43(DE3)
The assay can be described thus: isothermal titration calorimetry. As to conditions: ITC performed as in ref. 11; detergent-purified protein; read-out: binding affinity; cited from earlier work.

Regarding `O=C1O[C@H]([C@@H](O)CO)C(O)=C1O` [vitamin C], the Kd on ecUlaA [1] was around 26.5 µM; on ecUlaA [2] it was 6.1 ± 0.9 µM.
